The source of these data is ChEMBL document CHEMBL1151072, “Benzoxepin and benzothiepin derivatives as potent, orally active inhibitors of 5-lipoxygenase” (Bioorg Med Chem Lett, 1994).

Assay [1] relates to Canis familiaris. Put plainly: Inhibitory activity against LTB4 production upon oral administration at a dose of 1.0 mg/Kg (0.08-6.0 hour) in dog ex vivo model. Particulars: Canis lupus familiaris. Type of assay: functional.
The subject of assay [2] is Canis familiaris. Put plainly: Inhibitory activity against LTB4 production upon intravenous administration at a dose of 1.0 mg/Kg (0.08-6.0 hour) in dog ex vivo model. Type of assay: functional. The conditions noted are these: Canis lupus familiaris.
The test system of assay [3] is Canis familiaris. Put plainly: Inhibitory activity against LTB4 production upon oral administration at a dose of 1.0 mg/Kg (1 hour) in dog ex vivo model. Type of assay: functional. The conditions noted are these: Canis lupus familiaris.
In assay [4] the test system is Canis familiaris. Description: Inhibitory activity against LTB4 production upon intravenous administration at a dose of 1.0 mg/Kg (0.08 hours) in dog ex vivo model. In kind it is functional. The conditions noted are these: Canis lupus familiaris.
Assay [5] deals with Canis familiaris. Description: Duration of action on LTB4 production upon intravenous administration at a dose of 1.0 mg/Kg in dog ex vivo model. Type of assay: functional, Canis lupus familiaris.
Assay [6] has as its system Canis familiaris. Description: Inhibitory activity against LTB4 production upon intravenous administration at a dose of 1.0 mg/Kg (0.08-1 hour) in dog ex vivo model. The conditions noted are these: Canis lupus familiaris. In kind it is functional.
For assay [7], the system named is Canis familiaris. Description: Duration of action on LTB4 production upon oral administration at a dose of 1.0 mg/Kg in dog ex vivo model. In kind it is functional, Canis lupus familiaris.
The test system of assay [8] is Canis familiaris. Put plainly: Inhibitory activity against LTB4 production upon oral administration at a dose of 1.0 mg/Kg (0.25-6.0 hour) in dog ex vivo model. In kind it is functional. Particulars: Canis lupus familiaris.
Assay [9] relates to Canis familiaris. Put plainly: Inhibitory activity against LTB4 production upon intravenous administration at a dose of 1.0 mg/Kg (0.25-0.5 hour) in dog ex vivo model. In kind it is functional. The conditions noted are these: Canis lupus familiaris.
The subject of assay [10] is Canis familiaris. Description: Inhibitory activity against LTB4 production upon intravenous administration at a dose of 1.0 mg/Kg (3 hours) in dog ex vivo model. Type of assay: functional. Particulars: Canis lupus familiaris.
Assay [11] concerns Canis familiaris. Description: Inhibitory activity against LTB4 production upon oral administration at a dose of 1.0 mg/Kg (0.5 hours) in dog ex vivo model. Type of assay: functional. The conditions noted are these: Canis lupus familiaris.
In assay [12] the test system is Canis familiaris. Put plainly: Inhibitory activity against LTB4 production upon oral administration at a dose of 1.0 mg/Kg (0.5-1 hour) in dog ex vivo model. Type of assay: functional. The conditions noted are these: Canis lupus familiaris.
In assay [13] the test system is Canis familiaris. Put plainly: Inhibitory activity against LTB4 production upon intravenous administration at a dose of 1.0 mg/Kg (0.08-0.5 hour) in dog ex vivo model. Particulars: Canis lupus familiaris. Type of assay: functional.

Structures are written as SMILES.

Usually inhibition in vivo stands for the change of the read-out against control, counted positive when it falls. Low values mean a weak effect, high ones a strong effect. Turning to `NC(=O)N(O)CC1=Cc2cc(Oc3ccccc3)ccc2OC1`, the inhibition in vivo at 1 mg/kg in the assay with Canis familiaris [1] and in the assay on Canis familiaris [2] was > 95% each time.

In the case of `NC(=O)N(O)CC1=Cc2ccc(Oc3ccccc3)cc2OCC1`, the inhibition in vivo at 1 mg/kg was 28% in the assay with Canis familiaris [3] and > 95% in the assay on Canis familiaris [4]. The same molecule gave a Duration of action in the assay on Canis familiaris [5] of 1.1.

Regarding `NC(=O)N(O)CC1=Cc2cc(Oc3ccccc3)ccc2SCC1`, the Duration of action in the assay with Canis familiaris [5] was 2.8. In the assay on Canis familiaris [6], the inhibition in vivo at 1 mg/kg is > 95%.

As for `CNC(=O)N(O)CC1=Cc2cc(Oc3ccc(F)cc3)ccc2OCC1`, the Duration of action in the assay with Canis familiaris [7] and in the assay with Canis familiaris [5] was 13 in each case. Further, the inhibition in vivo at 1 mg/kg in the assay on Canis familiaris [8] and in the assay on Canis familiaris [6] was > 95% throughout.

Consider `NC(=O)N(O)CC1=Cc2cc(Oc3ccc(F)cc3)ccc2OCC1`, for which the inhibition in vivo at 1 mg/kg in the assay on Canis familiaris [3] and with Canis familiaris [9] was > 95% each time. Further, the Duration of action in the assay on Canis familiaris [7] is given as 10; with Canis familiaris [5] it was >24.

In the case of `NC(=O)N(O)CC1=Cc2cc(Oc3ccccc3)ccc2OCC1`, the Duration of action stood at 9.1 in the assay on Canis familiaris [7] and 19.4 with Canis familiaris [5]. In addition, the inhibition in vivo at 1 mg/kg turned out to be 80% in the assay with Canis familiaris [10] and 94% with Canis familiaris [11].

`CC(c1cc2ccccc2s1)N(O)C(N)=O` (stereo unspecified) [ZILEUTON]: the inhibition in vivo at 1 mg/kg with Canis familiaris [12] and in the assay on Canis familiaris [13] was > 90% each time.
